Assay [1] concerns the target T1, cloned human NK2 receptors (Homo sapiens, UniProt P21452).
T1 construct: expressed in transfected cells; host or cells: CHO cells
T1 sequence (P21452 1-398): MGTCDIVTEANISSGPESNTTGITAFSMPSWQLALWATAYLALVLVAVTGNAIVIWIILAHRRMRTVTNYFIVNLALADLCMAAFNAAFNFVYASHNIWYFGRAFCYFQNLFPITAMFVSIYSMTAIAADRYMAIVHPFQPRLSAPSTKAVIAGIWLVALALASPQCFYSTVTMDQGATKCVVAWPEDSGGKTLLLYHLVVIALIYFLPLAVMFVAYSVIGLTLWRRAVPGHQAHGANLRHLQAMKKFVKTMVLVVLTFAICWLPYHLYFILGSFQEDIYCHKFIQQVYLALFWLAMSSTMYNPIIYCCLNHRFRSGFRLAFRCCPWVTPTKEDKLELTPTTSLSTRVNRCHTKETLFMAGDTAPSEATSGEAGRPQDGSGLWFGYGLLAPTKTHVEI
Briefly: Inhibition of the binding of [125I]His-neurokinin A to cloned human NK2 receptors expressed by CHO cells. The note with it: binding of [125I]His-NKA, cloned human NK2 receptors expressed in CHO cells; read-out: inhibition constant Ki. The procedure:
The affinity of the compounds for the tachykinin receptors NK2 was evaluated in vitro by measuring the inhibition of the binding of [^125I]His-neurokinin A ([^125I]His-NKA) to cloned human NK2 receptors expressed by CHO cells (Y. Takeda et al., J. Neurochem., 1992, 59, 740-745).
The trials were performed according to […]

The target of a further assay is T2, NK2 receptor (Mus musculus, UniProt P30549).
T2 construct: from tissue; host or cells: mouse striatum (in vivo)
T2 sequence (P30549 1-384): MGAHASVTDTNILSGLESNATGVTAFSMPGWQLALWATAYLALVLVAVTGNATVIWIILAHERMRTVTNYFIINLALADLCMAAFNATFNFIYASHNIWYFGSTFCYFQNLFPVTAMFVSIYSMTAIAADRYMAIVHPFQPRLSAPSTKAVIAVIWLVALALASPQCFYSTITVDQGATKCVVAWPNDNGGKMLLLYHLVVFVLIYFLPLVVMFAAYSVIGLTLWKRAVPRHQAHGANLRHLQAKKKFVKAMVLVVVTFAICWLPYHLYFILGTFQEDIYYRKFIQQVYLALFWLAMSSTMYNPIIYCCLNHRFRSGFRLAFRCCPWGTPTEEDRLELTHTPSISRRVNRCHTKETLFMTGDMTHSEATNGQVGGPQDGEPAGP
Briefly: Spinning behavior caused by injection of [Nle10]NKA(4-10) into the striatum of mice, compounds administered orally. It counts as in vivo. The procedure:
The compounds of the present invention were also evaluated in vivo in a model of pharmacodynamics.
In mice, injection into the striatum of a specific agonist of the NK2 receptor, [Nle^10]NKA(4-10), causes a spinning behavior, which is inhibited in a dose-dependent manner by the compounds according to the invention administered orally. This test was performed according to Poncelet et al. (Neurosci. Lett., 1993, 149, 40-42).

The structures appear in SMILES notation. Where a name gives a salt, the structure may show the parent alone.

For orientation: Ki means a measure of affinity in units of concentration, obtained from inhibition or displacement. Usually ED50 stands for the dose that gives a 50% effect, or the effect in half of the subjects. For `CC(=O)NC1(c2cccc(F)c2)CCN(CCC2(c3ccc(Cl)c(Cl)c3)CN(c3ccccc3)C(=O)CO2)CC1` (single isomer, unassigned) [Compound 3, N-[1-[2-[2-(3,4-Dichlorophenyl)-5-oxo-4-phenylmorpholin-2-yl]ethyl]-4-(3-fluorophenyl)piperid-4-yl]acetamide hydrochloride, dextrorotatory isomer], the Ki in assay [1] is 0.16 nM. The “antagonism of the NK2 receptors (blocking the pharmacological effects caused by neurokinin A)” value on NK2 receptor (conclusion from the pharmacological results) was “antagonists of the NK2 receptors”. For the same compound, the median effective dose (ED50) at NK2 receptor (mouse, po, mice, orally, spinning behavior caused by intrastriatal [Nle10]NKA(4-10), read-out: 50 effective dose (ED50)) was 0.023 mg/kg.

The record behind these values is patent US7521449B2, “4-arylmorpholin-3-one derivatives, their preparation and therapeutic use thereof” (Sanofi-Aventis, priority 2004, dated 2009).
